The subject of experiment [1] is B. subtilis HE. The experiment in a line: Antibiogram by disc diffusion method. Conditions: for Zone of inhibition: 6 mm antibiotic discs, Mueller-Hinton plates, 18 hours at 37° C., strain B. subtilis HE. It counts as cell-based, Bacillus subtilis.
The test system of experiment [2] is B. licheniformis PA. The experiment in a line: Antibiogram by disc diffusion method. It counts as cell-based, Bacillus licheniformis.
Setting [3] is: 6 mm antibiotic discs, Mueller-Hinton plates, 18 hours at 37° C., strain B. licheniformis PA.

Read-outs that look alike come from different tables or passages of the source.

As to `NCC[C@H](O)C(=O)N[C@@H]1C[C@H](N)[C@@H](O[C@H]2O[C@H](CN)[C@@H](O)[C@H](O)[C@H]2O)[C@H](O)[C@H]1O[C@H]1O[C@H](CO)[C@@H](O)[C@H](N)[C@H]1O` [Amikacin], the results for the Zone of inhibition in experiment [1] and in experiment [2] (setting [3]) were 20 ± 0.2 mm and 18 ± 0.1 mm, respectively.

With `CC1(C)S[C@@H]2[C@H](NC(=O)[C@H](N)c3ccc(O)cc3)C(=O)N2[C@H]1C(=O)O` [Amoxicillin], the Zone of inhibition in experiment [1] came out at 18 ± 0.1 mm; in experiment [2] (setting [3]), 16 ± 0.1 mm.

Turning to `CC1(C)S[C@@H]2[C@H](NC(=O)[C@H](N)c3ccccc3)C(=O)N2[C@H]1C(=O)O` [Ampicillin], the “Sensitivity or resistance of the strain to the antibiotic (in words)” value (“Sensitivity or resistance of the strain” below) is reported as “sensitive” in experiment [1] and “resistant” in experiment [2] (strain B. licheniformis PA). Moreover, the results for the Zone of inhibition in experiment [1] and in experiment [2] (setting [3]) were 10 ± 0.3 mm and 0 mm, respectively.

With `CC1(C)S[C@@H]2[C@H](NC(=O)[C@H](NC(=O)N3CCNC3=O)c3ccccc3)C(=O)N2[C@H]1C(=O)O` [Azlocillin], the results for the Zone of inhibition in experiment [1] and in experiment [2] (setting [3]) were 18 ± 0.2 mm and 16 ± 0.1 mm, respectively.

As to `C[C@H]1[C@H](NC(=O)/C(=N\OC(C)(C)C(=O)O)c2csc(N)n2)C(=O)N1S(=O)(=O)O` [Aztreonam], the “Sensitivity or resistance of the strain” value in experiment [1] is reported as “resistant”. The Zone of inhibition in experiment [1] and in experiment [2] (setting [3]) was 0 mm in each case.

Turning to `CC1(C)S[C@@H]2[C@H](NC(=O)Cc3ccccc3)C(=O)N2[C@H]1C(=O)O` [Benzylpenicillin], in experiment [1], the “Sensitivity or resistance of the strain” value was “sensitive” and the Zone of inhibition amounted to 8 ± 0.1 mm. Besides, the Zone of inhibition in experiment [2] (setting [3]) is on record as 0 mm.

In the case of `CC1(C)S[C@@H]2[C@H](NC(=O)C(C(=O)O)c3ccccc3)C(=O)N2[C@H]1C(=O)O` (stereo partly shown) [Carbenicillin], the “Sensitivity or resistance of the strain” value in experiment [1] and in experiment [2] (strain B. licheniformis PA) was “sensitive” each time. Moreover, the Zone of inhibition in experiment [1] was 24 ± 0.4 mm; in experiment [2] (setting [3]) it was 18 ± 0.3 mm.

As to `Cn1nnnc1SCC1=C(C(=O)O)N2C(=O)[C@@H](NC(=O)[C@H](O)c3ccccc3)[C@H]2SC1` [Cefamandol], the Zone of inhibition in experiment [1] turned out to be 37 ± 0.1 mm; in experiment [2] (setting [3]) it was 16 ± 0.1 mm.

`CCN1CCN(C(=O)N[C@@H](C(=O)N[C@@H]2C(=O)N3C(C(=O)O)=C(CSc4nnnn4C)CS[C@H]23)c2ccc(O)cc2)C(=O)C1=O` [Cefoperazon]: the Zone of inhibition was 16 ± 0.1 mm in experiment [1] and 12 ± 0.2 mm in experiment [2] (setting [3]).

As for `CO/N=C(\C(=O)N[C@@H]1C(=O)N2C(C(=O)O)=C(COC(C)=O)CS[C@H]12)c1csc(N)n1` [Cefotaxim], the Zone of inhibition in experiment [1] is given as 14 ± 0.2 mm; in experiment [2] (setting [3]) it was 10 ± 0.2 mm.

Regarding `CO[C@@]1(NC(=O)Cc2cccs2)C(=O)N2C(C(=O)O)=C(COC(N)=O)CS[C@@H]21` [Cefoxitin], the Zone of inhibition in experiment [1] was determined as 16 ± 0.3 mm; in experiment [2] (setting [3]), 12 ± 0.3 mm.

Consider `CC(C)(O/N=C(\C(=O)N[C@@H]1C(=O)N2C(C(=O)[O-])=C(C[n+]3ccccc3)CS[C@H]12)c1csc(N)n1)C(=O)O` [Ceftazidim], for which, in experiment [1], the “Sensitivity or resistance of the strain” value was “sensitive” and the Zone of inhibition turned out to be 8 ± 0.2 mm. Besides, the Zone of inhibition in experiment [2] (setting [3]) was determined as 0 mm.

On to `CO/N=C(\C(=O)N[C@@H]1C(=O)N2C(C(=O)O)=CCS[C@H]12)c1csc(N)n1` [Ceftizoxim], for which the Zone of inhibition in experiment [1] and in experiment [2] (setting [3]) was 0 mm throughout.

In the case of `CO/N=C(\C(=O)N[C@@H]1C(=O)N2C(C(=O)O)=C(CSc3nc(=O)c(=O)[nH]n3C)CS[C@H]12)c1csc(N)n1` [Ceftriaxon], the Zone of inhibition in experiment [1] worked out at 18 ± 0.3 mm; in experiment [2] (setting [3]), 12 ± 0.2 mm.

Consider `CO/N=C(\C(=O)N[C@@H]1C(=O)N2C(C(=O)O)=C(COC(N)=O)CS[C@H]12)c1ccco1` [Cefuroxim], for which the “Sensitivity or resistance of the strain” value in experiment [1] and in experiment [2] (strain B. licheniformis PA) was “resistant” throughout. Also, the Zone of inhibition in experiment [1] and in experiment [2] (setting [3]) was 0 mm in each case.

On to `CC(=O)OCC1=C(C(=O)O)N2C(=O)[C@@H](NC(=O)Cc3cccs3)[C@H]2SC1` [Cephalothin], for which the results for the Zone of inhibition in experiment [1] and in experiment [2] (setting [3]) were 32 ± 0.5 mm and 20 ± 0.4 mm, respectively.

For the compound `O=C(N[C@H](CO)[C@H](O)c1ccc([N+](=O)[O-])cc1)C(Cl)Cl` [Chloramphenicol], the Zone of inhibition in experiment [1] was found to be 16 ± 0.2 mm; in experiment [2] (setting [3]) it was 10 ± 0.1 mm.

In the case of `CCC[C@@H]1C[C@@H](C(=O)N[C@@H]([C@H]2O[C@H](SC)[C@H](O)[C@@H](O)[C@H]2O)[C@H](C)Cl)N(C)C1` [Clindamycin], the values for the Zone of inhibition in experiment [1] and in experiment [2] (setting [3]) were 10 ± 0.3 mm and 0 mm, respectively.

For `C[C@@H](O)[C@H]1C(=O)N2C(C(=O)O)=C(SCCN=CN)C[C@H]12` [Imipenem], the figures for the Zone of inhibition in experiment [1] and in experiment [2] (setting [3]) were 36 ± 0.4 mm and 32 ± 0.3 mm, respectively.

For the compound `NC[C@H]1O[C@H](O[C@H]2[C@H](O)[C@@H](O[C@H]3O[C@H](CO)[C@@H](O)[C@H](N)[C@H]3O)[C@H](N)C[C@@H]2N)[C@H](O)[C@@H](O)[C@@H]1O` [Kanamycin], the Zone of inhibition in experiment [1] was 23 ± 0.1 mm; in experiment [2] (setting [3]) it was 20 ± 0.1 mm.

As for `COc1cccc(OC)c1C(=O)N[C@@H]1C(=O)N2[C@@H]1SC(C)(C)[C@@H]2C(=O)O` [Methicillin], the “Sensitivity or resistance of the strain” value in experiment [1] is “sensitive”; in experiment [2] (strain B. licheniformis PA), “resistant”. For the same compound, the results for the Zone of inhibition in experiment [1] and in experiment [2] (setting [3]) were 18 ± 0.1 mm and 0 mm, respectively.

As for `CC1(C)S[C@@H]2[C@H](NC(=O)[C@H](NC(=O)N3CCN(S(C)(=O)=O)C3=O)c3ccccc3)C(=O)N2[C@H]1C(=O)O` [Mezlocillin], the Zone of inhibition in experiment [1] amounted to 20 ± 0.3 mm; in experiment [2] (setting [3]), 17 ± 0.2 mm.

`CO[C@@]1(NC(=O)C(C(=O)O)c2ccc(O)cc2)C(=O)N2C(C(=O)O)=C(CSc3nnnn3C)CO[C@@H]21` (stereo partly shown) [Moxalactam]: the Zone of inhibition in experiment [1] and in experiment [2] (setting [3]) was 12 ± 0.3 mm throughout.

Regarding `O=C1CN(/N=C/c2ccc([N+](=O)[O-])o2)C(=O)N1` [Nitrofurantoin], the figures for the Zone of inhibition in experiment [1] and in experiment [2] (setting [3]) were 16 ± 0.2 mm and 18 ± 0.1 mm, respectively.

Regarding `CCn1cc(C(=O)O)c(=O)c2cc(F)c(N3CCNCC3)cc21` [Norfloxacin], the Zone of inhibition in experiment [1] and in experiment [2] (setting [3]) was 24 ± 0.2 mm each time.

With `Cc1onc(-c2ccccc2)c1C(=O)N[C@@H]1C(=O)N2[C@@H]1SC(C)(C)[C@@H]2C(=O)O` [Oxacillin], the “Sensitivity or resistance of the strain” value in experiment [1] is “sensitive”. Also, the figures for the Zone of inhibition in experiment [1] and in experiment [2] (setting [3]) were 14 ± 0.3 mm and 0 mm, respectively.

On to `CCN1CCN(C(=O)N[C@@H](C(=O)N[C@@H]2C(=O)N3[C@@H]2SC(C)(C)[C@@H]3C(=O)O)c2ccccc2)C(=O)C1=O` [Piperacillin], for which the Zone of inhibition stood at 18 ± 0.3 mm in experiment [1] and 12 ± 0.1 mm in experiment [2] (setting [3]).

As to `CN(C)[C@@H]1C(O)=C(C(N)=O)C(=O)[C@@]2(O)C(O)=C3C(=O)c4c(O)cccc4[C@@](C)(O)[C@H]3C[C@@H]12` [Tetracycline], the results for the Zone of inhibition in experiment [1] and in experiment [2] were 24 ± 0.3 mm and 24 ± 0.2 mm, respectively.

On to `CC1(C)S[C@@H]2[C@H](NC(=O)[C@H](C(=O)O)c3ccsc3)C(=O)N2[C@H]1C(=O)O` [Ticarcillin], for which the “Sensitivity or resistance of the strain” value in experiment [1] and in experiment [2] (strain B. licheniformis PA) was “sensitive” throughout. Also, the Zone of inhibition in experiment [1] is recorded as 24 ± 0.4 mm; in experiment [2] (setting [3]), 20 ± 0.1 mm.

`NC[C@H]1O[C@H](O[C@H]2[C@H](O)[C@@H](O[C@H]3O[C@H](CO)[C@@H](O)[C@H](N)[C@H]3O)[C@H](N)C[C@@H]2N)[C@H](N)C[C@@H]1O` [Tobramycin]: the Zone of inhibition was 24 ± 0.3 mm in experiment [1] and 20 ± 0.2 mm in experiment [2] (setting [3]).

Consider `COc1cc(Cc2cnc(N)nc2N)cc(OC)c1OC` [Trimethoprim], for which the Zone of inhibition in experiment [1] and in experiment [2] (setting [3]) was 24 ± 0.1 mm in each case.

As for `CN[C@H](CC(C)C)C(=O)N[C@H]1C(=O)N[C@@H](CC(N)=O)C(=O)N[C@H]2C(=O)N[C@H]3C(=O)N[C@H](C(=O)N[C@H](C(=O)O)c4cc(O)cc(O)c4-c4cc3ccc4O)[C@H](O)c3ccc(c(Cl)c3)Oc3cc2cc(c3O[C@@H]2O[C@H](CO)[C@@H](O)[C@H](O)[C@H]2O[C@H]2C[C@](C)(N)[C@H](O)[C@H](C)O2)Oc2ccc(cc2Cl)[C@H]1O` [Vancomycin], the Zone of inhibition in experiment [1] and in experiment [2] was 12 ± 0.1 mm in each case.

With Bactrim, the values for the Zone of inhibition in experiment [1] and in experiment [2] (setting [3]) were 30 ± 0.2 mm and 30 ± 0.1 mm, respectively.

As for Gentamycin, the Zone of inhibition in experiment [1] amounted to 24 ± 0.2 mm; in experiment [2] (setting [3]), 20 ± 0.1 mm.

Turning to Polymyxin E, in experiment [1], the “Sensitivity or resistance of the strain” value was “sensitive” and the Zone of inhibition worked out at 10 ± 0.1 mm. Also, the Zone of inhibition in experiment [2] (setting [3]) came to 0 mm.
